In ChEMBL document CHEMBL1157525, “The design and synthesis of potent and cell-active allosteric dual Akt 1 and 2 inhibitors devoid of hERG activity” (Bioorg Med Chem Lett, 2008) one finds IC50 data, which are given here for 28 compounds.

The target of test [1] is T1, RAC-alpha serine/threonine-protein kinase (Homo sapiens, UniProt P31749). Put plainly: Inhibition of Akt1 by cellular assay.
Test [2] concerns the target T2, RAC-beta serine/threonine-protein kinase (Homo sapiens, UniProt P31751). Put plainly: Inhibition of Akt2 by cellular assay.
The target in test [3] is T2, RAC-beta serine/threonine-protein kinase. Put plainly: Inhibition of Akt2.
Test [4] has as its target Voltage-gated inwardly rectifying potassium channel KCNH2 (Homo sapiens, UniProt Q12809). Put plainly: Inhibition of human ERG in embryonic kidney cells by radioligand-binding competition assay.
The target in test [5] is T1, RAC-alpha serine/threonine-protein kinase. Description: Inhibition of Akt1.

Structures are written as SMILES. pIC50: −log10 of the molar value.

T2 sequence (P31751 whole entry): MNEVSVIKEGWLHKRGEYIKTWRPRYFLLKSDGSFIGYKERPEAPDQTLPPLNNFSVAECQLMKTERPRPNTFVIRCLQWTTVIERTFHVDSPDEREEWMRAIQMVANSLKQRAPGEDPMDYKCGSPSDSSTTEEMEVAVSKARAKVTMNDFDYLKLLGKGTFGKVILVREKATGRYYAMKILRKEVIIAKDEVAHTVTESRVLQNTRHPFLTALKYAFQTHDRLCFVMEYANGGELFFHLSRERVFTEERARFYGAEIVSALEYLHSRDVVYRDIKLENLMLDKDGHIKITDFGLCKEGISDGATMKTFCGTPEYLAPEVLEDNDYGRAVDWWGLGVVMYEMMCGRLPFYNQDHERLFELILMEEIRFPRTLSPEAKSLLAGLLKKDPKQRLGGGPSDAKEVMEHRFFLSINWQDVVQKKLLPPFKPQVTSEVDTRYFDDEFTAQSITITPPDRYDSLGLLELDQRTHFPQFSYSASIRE
Voltage-gated inwardly rectifying potassium channel KCNH2, sequence (Q12809 whole entry): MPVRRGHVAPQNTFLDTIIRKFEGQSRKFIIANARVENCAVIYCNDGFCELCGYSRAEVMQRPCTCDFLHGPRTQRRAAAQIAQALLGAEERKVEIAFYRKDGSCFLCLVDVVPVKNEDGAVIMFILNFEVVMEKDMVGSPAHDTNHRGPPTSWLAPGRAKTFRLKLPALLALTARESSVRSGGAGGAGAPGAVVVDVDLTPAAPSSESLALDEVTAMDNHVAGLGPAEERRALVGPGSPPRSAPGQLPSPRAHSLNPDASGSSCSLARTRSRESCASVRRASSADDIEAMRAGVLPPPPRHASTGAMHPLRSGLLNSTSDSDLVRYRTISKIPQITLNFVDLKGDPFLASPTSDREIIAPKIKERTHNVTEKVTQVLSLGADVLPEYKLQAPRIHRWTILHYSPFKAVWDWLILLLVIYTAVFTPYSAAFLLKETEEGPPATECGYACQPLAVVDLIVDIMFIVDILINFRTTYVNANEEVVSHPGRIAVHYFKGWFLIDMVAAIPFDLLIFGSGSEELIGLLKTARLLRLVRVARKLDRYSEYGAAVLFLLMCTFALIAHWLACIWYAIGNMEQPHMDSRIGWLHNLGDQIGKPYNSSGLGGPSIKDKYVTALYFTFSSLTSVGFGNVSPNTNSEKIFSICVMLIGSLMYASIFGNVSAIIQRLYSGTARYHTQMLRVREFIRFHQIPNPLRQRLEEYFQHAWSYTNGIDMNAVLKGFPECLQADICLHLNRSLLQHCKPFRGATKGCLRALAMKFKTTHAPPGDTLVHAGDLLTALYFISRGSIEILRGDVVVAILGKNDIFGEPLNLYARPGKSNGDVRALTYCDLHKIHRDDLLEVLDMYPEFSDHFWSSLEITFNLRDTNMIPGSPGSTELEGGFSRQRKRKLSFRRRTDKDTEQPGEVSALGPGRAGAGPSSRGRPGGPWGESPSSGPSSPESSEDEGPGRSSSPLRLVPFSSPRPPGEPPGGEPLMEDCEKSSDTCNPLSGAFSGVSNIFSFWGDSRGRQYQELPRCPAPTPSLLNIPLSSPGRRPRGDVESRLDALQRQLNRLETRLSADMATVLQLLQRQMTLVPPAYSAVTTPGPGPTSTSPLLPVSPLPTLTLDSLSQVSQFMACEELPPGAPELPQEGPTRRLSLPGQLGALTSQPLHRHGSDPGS
T1 sequence (P31749 whole entry): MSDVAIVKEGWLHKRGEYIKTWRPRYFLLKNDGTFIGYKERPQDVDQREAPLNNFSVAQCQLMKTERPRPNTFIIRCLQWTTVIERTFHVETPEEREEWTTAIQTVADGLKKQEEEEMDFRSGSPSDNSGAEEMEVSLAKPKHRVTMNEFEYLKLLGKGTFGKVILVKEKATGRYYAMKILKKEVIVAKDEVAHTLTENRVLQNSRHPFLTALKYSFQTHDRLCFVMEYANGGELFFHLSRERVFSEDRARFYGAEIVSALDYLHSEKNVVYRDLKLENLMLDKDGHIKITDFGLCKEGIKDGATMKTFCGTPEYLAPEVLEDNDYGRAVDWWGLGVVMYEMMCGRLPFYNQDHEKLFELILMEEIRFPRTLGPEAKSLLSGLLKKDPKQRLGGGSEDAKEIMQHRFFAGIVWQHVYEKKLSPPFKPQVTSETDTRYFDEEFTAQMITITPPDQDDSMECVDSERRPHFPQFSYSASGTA

Regarding `CN1CCN(c2ccc3nc(-c4ccccc4)c(-c4ccc(CN5CCC(c6nnc(-c7ccccn7)[nH]6)CC5)cc4)nc3n2)CC1`, the pIC50 is 7.74 in test [1] and 7.04 in test [2].
Consider `CN(C)CCN1CCN(c2ncc3cc(-c4ccccc4)c(-c4ccc(CN5CCC(c6nnc(-c7ccccn7)[nH]6)CC5)cc4)nc3n2)CC1`, for which the pIC50 in test [1] was 8.00; in test [2], 7.41; in test [3], 8.40; in test [4], 5.68; in test [5] it was 8.40.
Consider `O=c1[nH]ccc2nc(-c3ccc(CN4CCC(c5nnc(-c6cnccn6)[nH]5)CC4)cc3)c(-c3ccccc3)cc12`, for which the pIC50 was 7.36 in test [1], 6.39 in test [2], 7.68 in test [3] and 8.40 in test [5].
With `CN1CCN(c2ncc3cc(-c4ccccc4)c(-c4ccc(CN5CCC(c6nnc(-c7ccc(N)nc7)[nH]6)CC5)cc4)nc3n2)CC1`, the pIC50 is 7.70 in test [1], 7.08 in test [2] and 5.21 in test [4].
Turning to `O=C1NCCc2nc(-c3ccc(CN4CCC(c5nnc(-c6ccccn6)[nH]5)CC4)cc3)c(-c3ccccc3)cc21`, the pIC50 in test [1] is 7.80; in test [2], 6.65; in test [3], 7.59; in test [4], 5.60; in test [5], 8.46.
Consider `COc1ccc(-c2nnc(C3CCN(Cc4ccc(-c5nc6cc[nH]c(=O)c6cc5-c5ccccc5)cc4)CC3)[nH]2)cn1`, for which the pIC50 was 7.40 in test [1]; 6.80 in test [2]; 7.80 in test [3]; 5.91 in test [4]; 8.52 in test [5].
Consider `O=c1[nH]ccc2nc(-c3ccc(CN4CCC(c5nnc(-c6ncccn6)[nH]5)CC4)cc3)c(-c3ccccc3)cc12`, for which the pIC50 in test [1] is 7.64; in test [2] it was 7.16; in test [3] it was 7.36; in test [4], less than 5.00; in test [5], 8.15.
`Nc1ccc(-c2nnc(C3CCN(Cc4ccc(-c5nc6nc(N7CCN(CCO)CC7)ccc6nc5-c5ccccc5)cc4)CC3)[nH]2)cn1`: the negative-log IC50 (pIC50) in test [1] was 6.94; in test [2], 6.64.
For `[O-][n+]1ccc(-c2nnc(C3CCN(Cc4ccc(-c5nc6nc(N7CCN(CCO)CC7)ncc6cc5-c5ccccc5)cc4)CC3)[nH]2)cc1`, the negative logarithm of the IC50 (pIC50) in test [1] was 7.17; in test [2], 6.84; in test [4] it was less than 5.00.
For the compound `OCCN1CCN(c2ccc3nc(-c4ccccc4)c(-c4ccc(CN5CCC(c6nnc(-c7ccccn7)[nH]6)CC5)cc4)nc3n2)CC1`, the pIC50 in test [1] was 7.89; in test [2] it was 7.32.
In the case of `CN1CCN(c2ncc3cc(-c4ccccc4)c(-c4ccc(CN5CCC(c6nnc(-c7ccc(=O)[nH]c7)[nH]6)CC5)cc4)nc3n2)CC1`, the negative-log IC50 (pIC50) in test [1] was 7.15; in test [2], 6.73.
For the compound `CN1CCN(c2ccc3nc(-c4ccc(CN5CCC(c6nnc(-c7ccccn7)[nH]6)CC5)cc4)c(-c4ccccc4)nc3n2)CC1`, the pIC50 in test [1] is 5.85; in test [2], 6.08.
As for `CN1CCN(c2ncc3cc(-c4ccccc4)c(-c4ccc(CN5CCC(c6nnc(-c7ncccn7)[nH]6)CC5)cc4)nc3n2)CC1`, the results for the pIC50 in test [1] and in test [2] were 7.60 and 7.40, respectively.
For `CN(C)CCN1CCN(c2ncc3cc(-c4ccccc4)c(-c4ccc(CN5CCC(c6nnc(-c7cc[n+]([O-])cc7)[nH]6)CC5)cc4)nc3n2)CC1`, the values for the pIC50 in test [1], in test [2] and in test [4] were 7.48, 7.17 and 5.10, respectively.
Turning to `OCCN1CCN(c2ncc3cc(-c4ccccc4)c(-c4ccc(CN5CCC(c6nc(-c7ncccn7)n[nH]6)CC5)cc4)nc3n2)CC1`, the values for the pIC50 in test [1], in test [2] and in test [4] were 7.43, 7.10 and less than 5.00, respectively.
In the case of `O=c1ccc(-c2nnc(C3CCN(Cc4ccc(-c5nc6cc[nH]c(=O)c6cc5-c5ccccc5)cc4)CC3)[nH]2)c[nH]1`, the negative-log IC50 (pIC50) is 7.21 in test [1]; 6.55 in test [2]; 8.10 in test [3]; less than 5.00 in test [4]; 9.00 in test [5].
Turning to `CN(C)CCN1CCN(c2ccc3nc(-c4ccccc4)c(-c4ccc(CN5CCC(c6nnc(-c7ccccn7)[nH]6)CC5)cc4)nc3n2)CC1`, the negative logarithm of the IC50 (pIC50) is 8.00 in test [1] and 7.37 in test [2].
With `CN1CCN(c2ccc3nc(-c4ccccc4)c(-c4ccc(CN5CCC(c6nnc(-c7ccc(N)nc7)[nH]6)CC5)cc4)nc3n2)CC1`, the pIC50 in test [1] is 7.15; in test [2], 6.65.
In the same order, the values of `OCCN1CCN(c2ccc3nc(-c4ccccc4)c(-c4ccc(CN5CCC(c6nc(-c7ncccn7)n[nH]6)CC5)cc4)nc3n2)CC1` are 7.14 and 6.72.
In the case of `O=c1ccc(-c2nnc(C3CCN(Cc4ccc(-c5nc6nc(N7CCN(CCO)CC7)ncc6cc5-c5ccccc5)cc4)CC3)[nH]2)c[nH]1`, the pIC50 is 6.90 in test [1], 6.55 in test [2] and 5.17 in test [4].
Regarding `Nc1ccc(-c2nnc(C3CCN(Cc4ccc(-c5nc6cc[nH]c(=O)c6cc5-c5ccccc5)cc4)CC3)[nH]2)cn1`, the pIC50 was 7.59 in test [1]; 6.78 in test [2]; 7.48 in test [3]; 5.00 in test [4]; 8.40 in test [5].
Take `CN(C)CCN1CCN(c2ncc3cc(-c4ccccc4)c(-c4ccc(CN5CCC(c6nnc(-c7ccc(N)nc7)[nH]6)CC5)cc4)nc3n2)CC1`: the pIC50 is 7.43 in test [1] and 6.85 in test [2].
On to `CN(C)CCN1CCN(c2ncc3cc(-c4ccccc4)c(-c4ccc(CN5CCC(c6nnc(-c7ccc(=O)[nH]c7)[nH]6)CC5)cc4)nc3n2)CC1`, for which the pIC50 in test [1] is 7.16; in test [2], 7.01; in test [4] it was 6.10.
For the compound `Nc1ccc(-c2nnc(C3CCN(Cc4ccc(-c5nc6nc(N7CCN(CCO)CC7)ncc6cc5-c5ccccc5)cc4)CC3)[nH]2)cn1`, the pIC50 in test [1] was 7.42; in test [2] it was 6.74.
Take `CN(C)CCN1CCN(c2ncc3cc(-c4ccccc4)c(-c4ccc(CN5CCC(c6nnc(-c7ncccn7)[nH]6)CC5)cc4)nc3n2)CC1`: the values for the pIC50 in test [1], in test [2] and in test [4] were 7.46, 6.89 and 5.32, respectively.
In the same order, the values of `CN(C)CCN1CCN(c2ccc3nc(-c4ccccc4)c(-c4ccc(CN5CCC(c6nc(-c7ncccn7)n[nH]6)CC5)cc4)nc3n2)CC1` are 6.98, 6.94 and less than 5.00.
In the case of `CN1CCN(c2ncc3cc(-c4ccccc4)c(-c4ccc(CN5CCC(c6nnc(-c7cc[n+]([O-])cc7)[nH]6)CC5)cc4)nc3n2)CC1`, the pIC50 in test [1] was 7.06; in test [2], 6.73; in test [4], 5.01.
`CN1CCN(c2ccc3nc(-c4ccccc4)c(-c4ccc(CN5CCC(c6nnc(-c7ncccn7)[nH]6)CC5)cc4)nc3n2)CC1`: the pIC50 in test [1] is 7.28; in test [2] it was 6.72.

A word on the pIC50: it is −log10 of the IC50, conventionally taken in molar units. A low value points to a high IC50.
